# Laboratory results published in patent US6667334B1, “Imidazolidine derivatives, the production thereof, their use and pharmaceutical preparations containing the same” (Aventis Pharma Deutschland GmbH, priority 1998, dated 2003).
# Target: T1, interaction between VCAM-1 and VLA-4 (Homo sapiens, UniProt P05556+P13612)
# T1 construct: the VLA-4 integrins, are supplied in their natural form as surface molecules on human U937 cells; host or cells: U937 cells carry the endogenous VLA-4; The partner hVCAM-1(1-3)-IgG was secreted by transfected COS cells (ATCC CRL1651) and used as culture supernatant
# Test: U937/VCAM-1 cell adhesion test: adhesion of U937 cells to hVCAM-1(1-3)-IgG
# Format: cell-based
# Conditions: human U937 cells (ATCC CRL 1593) adhering to hVCAM-1(1-3)-IgG; concentration giving 50% inhibition of adhesion
# Text: The test method used for the activity of the compounds of the formula I on the interaction between VCAM-1 and VLA-4 is an assay which is specific for this interaction. The cellular binding components, i.e. the VLA-4 integrins, are supplied in their natural form as surface molecules on human U937 cells (ATCC CRL 1593), which belong to the leukocytes group. The specific binding components used are genetically engineered recombinant soluble fusion proteins, consisting of the extracytoplasmatic domain of human VCAM-1 and the constant region of a human immunoglobulin of the subclass IgGl.
# Assay for the Measurement of the Adhesion of U937 Cells (ATCC CRL 1593) to hVCAM-1(1-3)-IgG
# 1. Preparation of Human VCAM-1(1-3)-IgG and Human CD4-IgG
# A genetic construct for the expression of the extracellular domain of human VCAM-1, associated with the genetic sequence of the heavy chain of human immunoglobulin IgGI (hinge, CH2 and CH3 regions), from Dr. Brian Seed, Massachusetts General Hospital, Boston, USA was employed (cf. Damle and Aruffo, Proc. Natl. Acad. Sci. USA 1991, 88, 6403-6407). The soluble fusion protein hVCAM-1(1-3)-IgG contained the three amino-terminal extracellular immunoglobulin-like domains of human VCAM-1 (Damle and Aruffo, Proc. Natl. Acad. Sci. USA 1991, 88, 6403-6407). CD4-IgG (Zettlmeissl et al., DNA and Cell Biology 1990, 9, 347) served as a fusion protein for negative controls. The recombinant proteins were expressed as soluble proteins after DEAE/dextran-mediated DNA transfection in COS cells (ATCC CRL1651) according to standard procedures (Ausubel et al., Current Protocols in Molecular Biology, John Wiley & Sons, Inc., 1994).
# 2. Assay for the Measurement of the Adhesion of U937 Cells to hVCAM-1(1-3)-IgG
# 2.1 96-well microtiter test plates (Nunc Maxisorb) were incubated at room temperature for 1 hour with 100 μl/well of a goat-anti-human IgG antibody solution (10 μg/ml in 50 mM tris, pH 9.5). After removal of the antibody solution, washing was carried out once with PBS.
# 2.2 150 μl/well of a blocking buffer (1% BSA in PBS) was incubated on the plates at room temperature for 0.5 hour. After removal of the blocking buffer, washing was carried out once with PBS.
# 2.3 100 μl per well of a cell culture supernatant of transfected COS cells were incubated on the plates at room temperature for 1.5 hours. The COS cells were transfected with a plasmid which codes for the three N-terminal immunoglobulin-like domains of VCAM-1, coupled to the Fc part of human IgG, (hVCAM-1(1-3)-IgG). The content of hVCAM-1(1-3)-IgG was about 0.5-1 μg/ml. After removal of the culture supernatant, washing was carried out once with PBS.
# 2.4 The plates were incubated at room temperature for 20 minutes with 100 μl/well of Fc receptor blocking buffer (1 mg/ml of γ-globulin, 100 mM NaCl, 100 μM MgCl2, 100 μM MnCl2, 100 μM CaCl2, 1 mg/ml of BSA in 50 mM HEPES, pH 7.5). After removal of the Fc receptor blocking buffer, washing was carried out once with PBS.
# 2.5 20 μl of binding buffer (100 mM NaCl, 100 μM MgCl2, 100 μM MnCl2, 100 μM CaCl2, 1 mg/ml of BSA in 50 mM HEPES, pH 7.5) were initially introduced, and the substances to be tested were added in 10 μl of binding buffer and incubated for 20 minutes. The controls used were antibodies against VCAM-1 (BBT, No. BBA6) and against VLA-4 (Immunotech, No. 0764).
# 2.6 U937 cells were incubated in Fc receptor blocking buffer for 20 minutes and then added by pipette in a concentration of 1×10^6/ml and in an amount of 100 μl per well ([…]).
# 2.7 The plates were slowly immersed at an angle of 45° in stop buffer (100 mM NaCl, 100 μM MgCl2, 100 μM MnCl2, 100 μM CaCl2 in 25 mM tris, pH 7.5) and shaken off. The process was repeated.
# 2.8 50 μl/well of a dye solution (16.7 μg/ml of Hoechst Dye 33258, 4% formaldehyde, 0.5% Triton X-100 in PBS) were then incubated on the plates for 15 minutes. […]
# T1 sequence (P13612 34-1032): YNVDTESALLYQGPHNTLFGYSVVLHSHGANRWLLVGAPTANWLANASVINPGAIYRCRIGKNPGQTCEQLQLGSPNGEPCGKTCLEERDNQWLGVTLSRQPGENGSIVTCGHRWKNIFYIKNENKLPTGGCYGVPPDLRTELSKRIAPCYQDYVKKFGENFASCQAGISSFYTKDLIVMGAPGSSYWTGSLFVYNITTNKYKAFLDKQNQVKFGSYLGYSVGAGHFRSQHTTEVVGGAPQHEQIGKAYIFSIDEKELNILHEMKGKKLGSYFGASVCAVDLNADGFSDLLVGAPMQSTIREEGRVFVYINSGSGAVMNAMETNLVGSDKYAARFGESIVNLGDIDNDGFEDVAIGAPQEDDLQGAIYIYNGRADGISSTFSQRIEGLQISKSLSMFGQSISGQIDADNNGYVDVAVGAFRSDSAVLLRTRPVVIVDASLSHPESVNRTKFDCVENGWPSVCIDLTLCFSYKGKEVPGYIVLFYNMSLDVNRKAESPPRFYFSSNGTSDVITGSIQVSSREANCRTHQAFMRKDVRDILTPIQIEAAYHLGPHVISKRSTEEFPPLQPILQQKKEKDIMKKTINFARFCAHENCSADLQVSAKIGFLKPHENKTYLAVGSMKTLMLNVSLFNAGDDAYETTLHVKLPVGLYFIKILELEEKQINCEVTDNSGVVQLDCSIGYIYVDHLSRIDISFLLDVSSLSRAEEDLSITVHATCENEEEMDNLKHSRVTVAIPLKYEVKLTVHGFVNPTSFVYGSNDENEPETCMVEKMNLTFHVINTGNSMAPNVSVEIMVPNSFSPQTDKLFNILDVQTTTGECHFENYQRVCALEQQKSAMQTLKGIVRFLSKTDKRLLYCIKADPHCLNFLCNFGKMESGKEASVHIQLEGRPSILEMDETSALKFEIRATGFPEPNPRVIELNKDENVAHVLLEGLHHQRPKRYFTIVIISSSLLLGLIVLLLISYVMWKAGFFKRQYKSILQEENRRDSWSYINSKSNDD
# T1 sequence (P05556 21-798): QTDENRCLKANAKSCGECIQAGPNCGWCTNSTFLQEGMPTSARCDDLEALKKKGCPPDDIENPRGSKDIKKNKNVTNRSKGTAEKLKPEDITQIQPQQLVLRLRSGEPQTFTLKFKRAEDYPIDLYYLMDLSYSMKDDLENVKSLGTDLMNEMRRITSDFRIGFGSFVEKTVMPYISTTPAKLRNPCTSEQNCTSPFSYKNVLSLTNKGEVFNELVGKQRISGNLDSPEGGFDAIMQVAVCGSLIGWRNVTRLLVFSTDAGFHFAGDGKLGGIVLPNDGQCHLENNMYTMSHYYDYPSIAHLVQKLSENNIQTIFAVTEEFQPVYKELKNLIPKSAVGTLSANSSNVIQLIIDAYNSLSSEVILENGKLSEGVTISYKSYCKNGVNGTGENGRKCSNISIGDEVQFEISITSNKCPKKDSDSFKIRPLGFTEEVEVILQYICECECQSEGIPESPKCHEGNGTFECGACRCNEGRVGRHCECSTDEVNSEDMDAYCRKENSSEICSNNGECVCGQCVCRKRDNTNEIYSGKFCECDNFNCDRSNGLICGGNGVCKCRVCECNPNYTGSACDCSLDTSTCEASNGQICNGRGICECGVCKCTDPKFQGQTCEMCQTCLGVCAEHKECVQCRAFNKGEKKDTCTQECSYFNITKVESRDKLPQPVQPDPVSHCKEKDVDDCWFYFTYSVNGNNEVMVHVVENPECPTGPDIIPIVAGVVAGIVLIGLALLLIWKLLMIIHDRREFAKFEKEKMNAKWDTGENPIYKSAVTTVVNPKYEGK
row,SMILES,IC50 [µM]
1,"COc1ccc(C(CC(=O)O)NC(=O)[C@H](CC(C)C)N2C(=O)N(Cc3ccc(/C=C/c4ccccc4)cc3)C(C)(C)C2=O)cc1F (stereo partly drawn) [Example 12, 3-((S)-2-(4,4-Dimethyl-3-(4-styrylbenzyl)-2,5-dioxo-imidazolidin-1-yl)-2-(2-methylpropyl)acetylamino)-3-(3-fluoro-4-methoxyphenyl)propionic Acid]",17.5
2,"CC(C)C[C@@H](C(=O)NC(CC(=O)O)c1ccc(F)cc1)N1C(=O)N(Cc2ccc(/C=C/c3ccccc3)cc2)C(C)(C)C1=O (stereo partly drawn) [Example 11, 3-((S)-2-(4,4-Dimethyl-3-(4-styrylbenzyl)-2,5-dioxo-imidazolidin-1-yl)-2-(2-methylpropyl)acetylamino)-3-(4-fluorophenyl)propionic Acid]",18
3,"CC(C)C[C@@H](C(=O)NC(CC(=O)O)c1cccc(F)c1)N1C(=O)N(Cc2ccc(/C=C/c3ccccc3)cc2)C(C)(C)C1=O (stereo partly drawn) [Example 15, 3-((S)-2-(4,4-Dimethyl-3-(4-styrylbenzyl)-2,5-dioxo-imidazolidin-1-yl)-2-(2-methylpropyl)acetylamino)-3-(3-fluorophenyl)propionic acid]",61.5
4,"CC(C)C[C@@H](C(=O)N[C@H](C)CC(=O)O)N1C(=O)N(Cc2ccc(CCc3ccccc3)cc2)C(C)(C)C1=O [Example 2, (R)-3-((S)-2-(4,4-Dimethyl-3-(4-(2-phenylethyl)benzyl)-2,5-dioxoimidazolidin-1-yl)-2-(2-methylpropyl)acetylamino)-3-methylpropionic Acid]",118
5,"CC(C)C[C@@H](C(=O)NCCC(=O)O)N1C(=O)N(Cc2ccc(/C=C/c3ccccc3)cc2)C(C)(C)C1=O [Example 4, 3-((S)-2-(4,4-Dimethyl-3-(4-styrylbenzyl)-2,5-dioxo-imidazolidin-1-yl)-2-(2-methylpropyl)acetylamino)propionic Acid]",27.8
6,"CC(C)C[C@@H](C(=O)NC(CC(=O)O)c1ccc(Cl)cc1)N1C(=O)N(Cc2ccc(/C=C/c3ccccc3)cc2)C(C)(C)C1=O (stereo partly drawn) [Example 17, 3-(4-Chlorophenyl)-3-((S)-2-(4,4-dimethyl-3-(4-styrylbenzyl)-2,5-dioxoimidazolidin-1-yl)-2-(2-methyl-propyl)acetylamino)propionic Acid]",36.6
7,"Cc1cccc(C(CC(=O)O)NC(=O)[C@H](CC(C)C)N2C(=O)N(Cc3ccc(/C=C/c4ccccc4)cc3)C(C)(C)C2=O)c1 (stereo partly drawn) [Example 13, 3-((S)-2-(4,4-Dimethyl-3-(4-styrylbenzyl)-2,5-dioxo-imidazolidin-1-yl)-2-(2-methylpropyl)acetylamino)-3-(3-methylphenyl)propionic Acid]",64.6
8,"COc1cccc(C(CC(=O)O)NC(=O)[C@H](CC(C)C)N2C(=O)N(Cc3ccc(/C=C/c4ccccc4)cc3)C(C)(C)C2=O)c1 (stereo partly drawn) [Example 10, 3-((S)-2-(4,4-Dimethyl-3-(4-styrylbenzyl)-2,5-dioxo-imidazolidin-1-yl)-2-(2-methylpropyl)acetylamino)-3-(3-methoxyphenyl)propionic Acid]",24.5
9,"CCCCc1ccc(C(CC(=O)O)NC(=O)[C@H](CC(C)C)N2C(=O)N(Cc3ccc(/C=C/c4ccccc4)cc3)C(C)(C)C2=O)cc1 (stereo partly drawn) [Example 16, 3-(4-Butylphenyl)-3-((S)-2-(4,4-dimethyl-3-(4-styrylbenzyl)-2,5-dioxoimidazolidin-1-yl)-2-(2-methyl-propyl)acetylamino)propionic Acid]",34.9

# Compounds with a lower IC50, results first:
row,IC50 [µM],SMILES
1,16.4,"CC(C)C[C@@H](C(=O)N[C@H](CC(=O)O)c1ccc2c(c1)OCO2)N1C(=O)N(Cc2ccc(Oc3ccccc3)cc2)C(C)(C)C1=O [Example 6, (R)-3-((S)-2-(4,4-Dimethyl-2,5-dioxo-3-(4-phenyloxy-20 benzyl)imidazolidin-1-yl)-2-(2-methylpropyl)acetylamino)-3-(3,4-methylenedioxyphenyl)propionic Acid]"
2,15.3,"CC(C)C[C@@H](C(=O)NC(CC(=O)O)c1ccccc1F)N1C(=O)N(Cc2ccc(/C=C/c3ccccc3)cc2)C(C)(C)C1=O (stereo partly drawn) [Example 14, 3-((S)-2-(4,4-Dimethyl-3-(4-styrylbenzyl)-2,5-dioxo-imidazolidin-1-yl)-2-(2-methylpropyl)acetylamino)-3-(2-fluorophenyl)propionic Acid]"
3,3.2,"CC(C)C[C@@H](C(=O)N[C@H](C)CC(=O)O)N1C(=O)N(Cc2ccc(/C=C/c3ccccc3)cc2)C(C)(C)C1=O [Example 1, (R)-3-((S)-2-(4,4-Dimethyl-3-(4-styrylbenzyl)-2,5-dioxoimidazolidin-1-yl)-2-(2-methylpropyl)acetylamino)-3-methylpropionic Acid]"
4,2.9,"CC(C)C[C@@H](C(=O)N[C@H](C)CC(=O)O)N1C(=O)N(Cc2ccc(OCc3ccccc3)cc2)C(C)(C)C1=O [Example 7, (R)-3-((S)-2-(3-(4-Benzyloxybenzyl)-4,4-dimethyl-2,5-dioxoimidazolidin-1-yl)-2-(2-methylpropyl)acetylamino)-3-methylpropionic Acid]"
5,2,"Cc1ccccc1/C=C/c1ccc(CN2C(=O)N([C@@H](CC(C)C)C(=O)N[C@H](C)CC(=O)O)C(=O)C2(C)C)cc1 [Example 8, (R)-3-((S)-2-(4,4-Dimethyl-3-(4-(2-(2-methylphenyl)-vinyl)benzyl)-2,5-dioxoimidazolidin-1-yl)-2-(2-methyl-propyl)acetylamino)-3-methylpropionic Acid]"
6,0.56,"CC(C)C[C@@H](C(=O)N[C@H](CC(=O)O)c1ccccc1)N1C(=O)N(Cc2ccc(/C=C/c3ccccc3)cc2)C(C)(C)C1=O [Example 3, (R)-3-((S)-2-(4,4-Dimethyl-3-(4-styrylbenzyl)-2,5-dioxoimidazolidin-1-yl)-2-(2-methylpropyl)acetylamino)-3-phenylpropionic Acid]"
7,0.18,"Cc1ccccc1/C=C/c1ccc(CN2C(=O)N([C@@H](CC(C)C)C(=O)N[C@H](CC(=O)O)c3ccccc3)C(=O)C2(C)C)cc1 [Example 9, (R)-3-((S)-2-(4,4-Dimethyl-3-(4-(2-(2-methylphenyl)-vinyl)benzyl)-2,5-dioxoimidazolidin-1-yl)-2-(2-methyl-propyl)acetylamino)-3-phenylpropionic Acid]"
8,0.15,"CC(C)C[C@@H](C(=O)N[C@H](CC(=O)O)c1ccc2c(c1)OCO2)N1C(=O)N(Cc2ccc(/C=C/c3ccccc3)cc2)C(C)(C)C1=O [Example 5, (R)-3-((S)-2-(4,4-Dimethyl-3-(4-styrylbenzyl)-2,5-dioxo-imidazolidin-1-yl)-2-(2-methylpropyl)acetylamino)-3-(3,4-methylenedioxyphenyl)propionic Acid]"
